Laboratory results: paper PMC10552397 (Cell Communication and Signaling : CCS, 2023)
pIC50: −log10 of the molar value. Where two headings read alike, the source gives them in different places.

Experiments:
[1] = system: HeLa wt cells; experiment: MTT cell viability assay, HeLa wt; assay type: cell-based; conditions: Homo sapiens
Description: Cell viability was measured using the MTT (3-(4,5-dimethylthiazol-2-yl)-2,5-diphenyltetrazolium bromide) assay. HeLa cells were seeded in 96-well plates with a density of 5*10^3 cells/well. […] After the incubation time, 20 µL of a 5 mg/mL MTT stock solution (ROTH, Karlsruhe, Germany, #4022.3) were added to the cells and they were incubated at 37 °C and 5% CO2 in a humidified atmosphere for 30 min. Upon removal of the MTT-containing medium 100 µL DMSO per well were added for extraction of the formazan. Absorbance was measured at 570 nm and 650 nm (reference) with a microplate reader (SynergyMx, BioTek, Winooski, VT, USA). After subtraction of the reference value, the mean of the absorbance of the solvent control was set as 100% and the relative viability was calculated for each sample.
All IC50 values were calculated using GraphPad Prism 7.01.

[2] = biological target: T1, EFEMP1 (Homo sapiens, UniProt Q12805); experiment: TPP-TR/RTSA, EFEMP1; assay type: binding
T1 construct: endogenous in cells; host or cells: HeLa wt cells
T1 sequence (Q12805 18-493): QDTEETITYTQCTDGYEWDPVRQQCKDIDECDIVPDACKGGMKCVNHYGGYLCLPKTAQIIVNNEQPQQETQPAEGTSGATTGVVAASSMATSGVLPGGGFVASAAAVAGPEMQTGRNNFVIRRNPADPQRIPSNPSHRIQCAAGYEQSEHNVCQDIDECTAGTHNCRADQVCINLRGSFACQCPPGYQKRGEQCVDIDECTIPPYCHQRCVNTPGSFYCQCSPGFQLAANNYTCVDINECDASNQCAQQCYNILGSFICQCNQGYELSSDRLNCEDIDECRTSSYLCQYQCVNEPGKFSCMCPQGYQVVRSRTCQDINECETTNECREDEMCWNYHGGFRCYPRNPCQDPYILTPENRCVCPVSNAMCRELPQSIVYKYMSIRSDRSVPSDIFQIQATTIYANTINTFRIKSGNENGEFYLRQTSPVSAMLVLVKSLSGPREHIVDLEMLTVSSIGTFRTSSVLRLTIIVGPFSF
Description: TPP was performed essentially as described, but with major modifications to the TMT labeling sets and statistical data analysis for TPP-TR.
Adherent cells were washed in the dish once with DPBS and harvested by Trypsin–EDTA (0.25%, Thermo Fisher Scientific, Waltham, MA, USA, #25,200,056) treatment. […]
After temperature treatment, samples were supplemented with lysis buffer (final concentrations: 0.36 U/µL benzonase, 1.5 mM MgCl2, 1 mM Na3VO4, 10 mM NaF, 2.5 mM Na4P2O7, 0.8% w/v NP-40) for 1 h on ice. […] The total protein concentration of the resulting cell extracts containing the fraction of soluble, non-denatured proteins was determined (Pierce 660 nm Protein Assay, BSA as standard). […] The two (37 °C or 50 °C) x ten (concentrations) x three (replicates) = 60 TPP-CCR samples and two (treatment and control) x ten (temperatures) x three (replicates) = 60 TPP-TR samples were analyzed by LC–MS/MS. GRASP55 was additionally quantified from the TPP-TR samples by immunoblotting as described in the respective section.
For TPP-CCR, SP3 was performed as described with slight modifications to the original protocol using on average 5 µg total protein per sample and resulting in theoretically 5 µg peptides in 22 µL 50 mM triethylammonium bicarbonate per sample. […] This volume was calculated such that the lowest two temperature samples (36.5 °C and 41.2 °C) contained 10 µg total protein on average. […]

[3] = system: HeLa wt cells; experiment: BFA washout assay (Golgi reassembly, TGN46 and B4GALT1 staining); assay type: cell-based; conditions: 120 min washout
Description: For BFA washout assays, HeLa wt cells were seeded on glass coverslips in 24-well plates. […] After 24 h, the treatment medium was removed, cells were washed once with DPBS and then treated with 5 µg/mL BFA or 0.1% DMSO as a control for 2 h. Cells were then washed with DPBS four times and incubated with fresh culture medium for 0/15/30/45/60/120 min. After the respective BFA washout time, cells were fixed in ice-cold methanol for 15 min on ice, washed three times with DPBS and blocked in 3% BSA (Roth, Karlsruhe, Germany, #8076) overnight. Samples were incubated with primary antibodies diluted in 3% BSA for 2 h and then washed three times with DPBS, incubated with the appropriate secondary antibodies diluted in 3% BSA for 30 min and washed three times with DPBS. Afterwards, cells were embedded in ProLong Glass Antifade Mountant (Thermo Fisher Scientific, Waltham, MA, USA, #P36980) containing 1 µg/mL DAPI (Roth, Karlsruhe, Germany, #6335.1). Images were recorded with an Axio Observer 7 fluorescence microscope (Carl Zeiss Microscopy, Oberkochen, Germany) using a 40x/1,4 Oil DIC M27 Plan-Apochromat objective (Carl Zeiss Microscopy, Oberkochen, Germany) and an ApoTome 2 (Carl Zeiss Microscopy, Oberkochen, Germany).

What does the source list for `CCCCCC1=C/C(=C/c2[nH]c(-c3ccc[nH]3)cc2OC)N=C1C` [Prodigiosin, prodigiosin]?
pIC50 ([1]; 24 h, Fig. 1B, read-out: IC50 (24 h)): 6.16; pIC50 ([1]; 24 h, Fig. 5C (independent of Fig. 1B), read-out: IC50 value wt): 6.26; pIC50 ([1]; 72 h, Fig. 1B, read-out: IC50 (72 h)): 7.11; pIC50 ([1]; 72 h, Fig. 5C (independent of Fig. 1B), read-out: IC50 value wt): 7.19; ΔTm at 0.1 µM ([2]; 100 nM vs DMSO, 6 h, HeLa wt, read-out: Mean_dTm): 1.55 °C; distancescore ([2]; RTSA distance score): 13.326; Golgi reassembly during BFA washout ([3]; 10 nM pre-treatment 24 h): fully reformed Golgi complex; Golgi reassembly during BFA washout ([3]; 100 nM pre-treatment 24 h): severely disturbed Golgi reassembly
